Results from US20260250289A1, “BICYCLIC HETEROCYCLES AND THEIR USE AS WRN INHIBITORS” (Novartis AG, priority 2022, published 2026).
Like-named read-outs stand apart in the source and are kept apart here.

Legend:
[1] = biological target: T1, WRN helicase (aa N517-P1238) (Homo sapiens, UniProt Q14191); experiment: WRN ATPase assay (DNA dependent ATP hydrolysis, ADP-Glo); type: biochemical; conditions: 3 hours pre-incubation, 300 micromolar ATP, FLAP26 DNA; geometric mean of at least 2
T1 construct: The core helicase motif of the WRN protein (aa N517-P1238) was produced for this assay; His (N); ZZ (N); 3C protease cleavage site (N); made in house; host or cells: Sf21 insect cells (baculovirus; virus and BIICs made in SF9)
Method in brief: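 DNA-dependent ATP hydrolysis detected as ADP by ADP-Glo luminescence, using 300 μM ATP, 0.2 nM FLAP26 substrate and 10 nM WRN aa N517-P1238 (Tris pH 7.5 buffer, 2 mM MgCl2, 50 mM NaCl). IC50s fitted from normalized duplicate half-log dilutions; reported as geometric means of at least 2 replicates.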

[2] = tested on: DLD1-WRN-KO cells; experiment: Proliferation assay DLD1-WRN-KO (CellTiterGlo, off-target effects); type: cell-based; conditions: 96 hours, geometric mean of at least 2
Method in brief: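 DLD1 cells with CRISPR knockout of WRN were exposed overnight-seeded to eight 3-fold compound dilutions (0.1% DMSO) for 96 h at 37 °C. Viability was read as ATP by CellTiterGlo luminescence against a day-0 plate, giving GI50 and residual viability at top concentration.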

[3] = tested on: SW48 cells; experiment: Proliferation assay SW48 (CellTiterGlo); type: cell-based; conditions: SW48 colon carcinoma cells, 96 hours, CellTiterGlo, geometric mean of at least 2, read-out: Proliferation Assay SW48 GI50
Text: The colon carcinoma cell lines SW48 (RRID: CVCL_1724), HCT 116 (RRID: CVCL_0291) and SNU-407 (RRID: CVCL_5058) were obtained from ATCC. The WRN-knockdown insensitive colon carcinoma cell line DLD-1 (RRID: CVCL_0248) was obtained from the Korean Cell Line Bank (KCLB), and used to generate a derivative in which the endogenous WRN gene copies were knocked out by CRISPR-mediated editing using standard CRISPR methods. The resulting cell line, DLD1-WRN-KO, was used to assess potential off-target compound effects.
SW48, SNU-407 and DLD1-WRN-KO cells were cultured in growth medium composed of RPMI-1640 (Amimed Cat #1-41F22-1), 2 mM L-Glutamine (Amimed Cat #5-10K50), 10 mM HEPES (Gibco Cat #15630-056), 1 mM sodium pyruvate (Amimed Cat #5-60F00-H), 1× Penicillin-Streptomycin (Amimed Cat #4-01F00-H) and 10% fetal calf serum (Amimed Cat #2-01F30-G, Lot #LB11566P). HCT 116 cells were cultured in growth medium composed of McCoys 5A (Amimed catalog #1-18F01-1), 2 mM L-Glutamine (Amimed Cat #5-10K50), 1× Penicillin-Streptomycin (Amimed Cat #4-01F00-H) and 10% fetal calf serum (Amimed Cat #2-01F30-G, Lot #LB11566P). All cells were maintained at 37° C. in a humidified 5% CO2 incubator.
Following filtration through a Steriflip-NY 20 μm filter (Millipore Cat #SCNY00020), trypsinized cells were seeded in 100 microliters growth medium at 2,000 (SW48) or 1,500 (SNU-407, DLD1-WRN-KO, HCT 116) cells/well into white, clear-bottom 96-well plates (Costar Cat #3903). Three replicate plates were prepared for each compound treatment condition. In addition, one plate (termed “day 0”) was prepared to quantify the number of viable cells at the time of compound addition. Following overnight incubation at 37° C. in a humidified 5% CO2 atmosphere, eight 3-fold serial dilutions of a given compound stock (obtained at a concentration of 10 mM in DMSO and stored at 4° C.) were dispensed directly into each of the triplicate assay plates using a HP 300D non-contact Digital Dispenser (TECAN). The final concentration of DMSO was normalized to 0.1% in all wells. 96 hours after compound addition, cellular ATP levels as a surrogate for cell viability was assessed following addition of 50 microliters CellTiterGlo (Promega Cat #G7573) reagent and luminescence quantification on a MPLEX multi-mode plate-reader (TECAN) following a 10 minute incubation at room temperature. The number of viable cells in the “day 0” plate were quantified identically on the day of compound addition.
For data analysis, the assay background signal that was determined in wells containing medium, but no cells, was subtracted from all other data points prior to further calculations. The extent of growth inhibition and potential cell kill was assessed by comparing the ATP levels (measured using CellTiterGlo, Promega) in compound-treated cells with those present at the time of compound addition. To this end, the following conditional concept was programmatically applied in HELIOS, an in-house software applying a multi-step decision tree to arrive at optimal concentration response curve fits (Gubler et al, SLAS DOI: 10.1177/2472555217752140) to calculate % growth (% G) for each compound-treated well: % G=(T−V0)/V0))*100 when T<V0, and % G=(T−V0)/(V−V0)))*100 when T≥V0, where V0 is the viability level at time of compound addition, while V and T represent vehicle-control and compound-treated viability levels, respectively, at the end of the compound incubation. 100%, 0% and −100% signify absence of growth inhibition, growth stasis, and complete cell kill, respectively. Compound concentrations leading to half-maximal growth inhibition (GI50) and residual cell viability at the highest tested compound concentration (Data (cmax), expressed in percent) were routinely calculated. Data analysis can also be carried out using commercially available software designed to derive IC50 values using 4-parameter fits (e.g. GraphPad Prism, XL fit). […]

T1 sequence (Q14191 517-1238): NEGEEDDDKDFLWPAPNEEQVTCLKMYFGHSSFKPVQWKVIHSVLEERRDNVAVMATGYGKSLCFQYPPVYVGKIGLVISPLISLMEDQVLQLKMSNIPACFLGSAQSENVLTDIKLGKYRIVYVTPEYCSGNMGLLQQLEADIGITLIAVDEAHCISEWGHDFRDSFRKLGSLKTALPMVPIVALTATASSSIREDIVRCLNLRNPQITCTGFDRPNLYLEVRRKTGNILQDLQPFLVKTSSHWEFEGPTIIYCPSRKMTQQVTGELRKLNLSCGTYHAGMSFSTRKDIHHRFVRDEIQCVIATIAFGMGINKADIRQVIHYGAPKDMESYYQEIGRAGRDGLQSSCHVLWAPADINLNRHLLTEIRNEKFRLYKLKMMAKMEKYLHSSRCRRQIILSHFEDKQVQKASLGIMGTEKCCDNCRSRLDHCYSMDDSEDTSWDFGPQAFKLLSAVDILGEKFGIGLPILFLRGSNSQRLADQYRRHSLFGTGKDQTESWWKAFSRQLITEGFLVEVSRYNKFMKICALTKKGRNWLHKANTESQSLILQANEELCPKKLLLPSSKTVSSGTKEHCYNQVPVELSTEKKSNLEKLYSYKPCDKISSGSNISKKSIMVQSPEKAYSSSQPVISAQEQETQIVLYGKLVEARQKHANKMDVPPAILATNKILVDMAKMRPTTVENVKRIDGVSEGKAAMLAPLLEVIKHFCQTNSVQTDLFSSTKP

| SMILES | IC50 [1] | GI50 [2] | GI50 ([3]; Homo sapiens, SW48, 96 h) | GI50 [3] |
| --- | --- | --- | --- | --- |
| CCc1c(N2CCN(C(=O)c3ncnc(C)c3OC)CC2)c(=O)n2nc(C3=CCOCC3)nc2n1CC(=O)Nc1ccc(C(F)(F)F)cc1C [Example 34, 2-(2-(3,6-dihydro-2H-pyran-4-yl)-5-ethyl-6-(4-(5-methoxy-6-methylpyrimidine-4-carbonyl)piperazin-1-yl)-7-oxo-[1,2,4]triazolo[1,5-a]pyrimidin-4(7H)-yl)-N-(2-methyl-4-(trifluoromethyl)phenyl)acetamide] | 5000 nM | > 10000 nM | 7000 nM | – |
| CC(=O)N1CCN(c2c(C)n(CC(=O)Nc3ccc(C(F)(F)F)cc3)c3nc(C4=CCCC4)nn3c2=O)CC1 [Example 110, 2-(6-(4-acetylpiperazin-1-yl)-2-(cyclopent-1-en-1-yl)-5-methyl-7-oxo-[1,2,4]triazolo[1,5-a]pyrimidin-4(7H)-yl)-N-(4-(trifluoromethyl)phenyl)acetamide] | 200 nM | > 10000 nM | 5000 nM | – |
| CCc1c(N2CCN(C(=O)c3cn(C)c(=O)[nH]3)CC2)c(=O)n2nc(C3=CCCC3)nc2n1CC(=O)Nc1ccc(C(F)(F)F)cc1 [Example 52, 2-(2-(cyclopent-1-en-1-yl)-5-ethyl-6-(4-(1-methyl-2-oxo-2,3-dihydro-1H-imidazole-4-carbonyl)piperazin-1-yl)-7-oxo-[1,2,4]triazolo[1,5-a]pyrimidin-4(7H)-yl)-N-(4-(trifluoromethyl)phenyl)acetamide] | 50 nM | > 10000 nM | 3000 nM | – |
| CC(=O)N1CCN(c2c(C)n(CC(=O)Nc3ccc(C(F)(F)F)cc3)c3nc(C4=CCC(N5CC(F)(F)C5)CC4)nn3c2=O)CC1 (stereo not drawn) [Example 114, 2-(6-(4-acetylpiperazin-1-yl)-2-(4-(3,3-difluoroazetidin-1-yl)cyclohex-1-en-1-yl)-5-methyl-7-oxo-[1,2,4]triazolo[1,5-a]pyrimidin-4(7H)-yl)-N-(4-(trifluoromethyl)phenyl) acetamide] | 400 nM | > 10000 nM | 2000 nM | – |
| CC(=O)N1CCN(c2c(C)n(CC(=O)Nc3ccc(Cl)cc3)c3nc(C4=CCCCO4)nn3c2=O)CC1 [Example 79, 2-(6-(4-acetylpiperazin-1-yl)-2-(3,4-dihydro-2H-pyran-6-yl)-5-methyl-7-oxo-[1,2,4]triazolo[1,5-a]pyrimidin-4(7H)-yl)-N-(4-chlorophenyl)acetamide] | 200 nM | > 10000 nM | 5000 nM | – |
| CCc1c(N2CCN(C(=O)C3CCOC3)CC2)c(=O)n2nc(C3=CCCCO3)nc2n1CC(=O)Nc1ccc(C(F)(F)F)cc1 (stereo not drawn) [Example 60, 2-(2-(3,4-dihydro-2H-pyran-6-yl)-5-ethyl-7-oxo-6-(4-(tetrahydrofuran-3-carbonyl)piperazin-1-yl)-[1,2,4]triazolo[1,5-a]pyrimidin-4(7H)-yl)-N-(4-(trifluoromethyl)phenyl)acetamide] | 300 nM | > 10000 nM | – | 3000 nM |
| Cc1c(N2CCN(C(=O)c3c(O)ccc4ccnn34)CC2)c(=O)n2nc(C3=CCOCC3)nc2n1CC(=O)Nc1ccc(C(F)(F)F)cc1 [Example 35, 2-(2-(3,6-dihydro-2H-pyran-4-yl)-6-(4-(6-hydroxypyrazolo[1,5-a]pyridine-7-carbonyl)piperazin-1-yl)-5-methyl-7-oxo-[1,2,4]triazolo[1,5-a]pyrimidin-4(7H)-yl)-N-(4-(trifluoromethyl)phenyl)acetamide] | 40 nM | > 10000 nM | 300 nM | – |
| CCc1c(C2CCN(C(C)=O)CC2)c(=O)n2nc(C3=CCC(OC)CC3)nc2n1CC(=O)Nc1ccc(C(F)(F)F)cc1 (stereo not drawn) [Example 139, 2-(6-(1-acetylpiperidin-4-yl)-5-ethyl-2-(4-methoxycyclohex-1-en-1-yl)-7-oxo-[1,2,4]triazolo[1,5-a]pyrimidin-4(7H)-yl)-N-(4-(trifluoromethyl)phenyl)acetamide] | 100 nM | > 10000 nM | 1000 nM | – |
| Cc1nc2ccccc2c(C(=O)N2CCN(c3c(C)n(CC(=O)Nc4ccc(C(F)(F)F)cc4)c4nc(C5=CCOCC5)nn4c3=O)CC2)c1O [Example 20, 2-(2-(3,6-dihydro-2H-pyran-4-yl)-6-(4-(3-hydroxy-2-methylquinoline-4-carbonyl)piperazin-1-yl)-5-methyl-7-oxo-[1,2,4]triazolo[1,5-a]pyrimidin-4(7H)-yl)-N-(4-(trifluoromethyl)phenyl)acetamide] | 90 nM | > 10000 nM | 1000 nM | – |
| CCc1c(N2CCN(C(=O)CN)CC2)c(=O)n2nc(C3=CCC(OC)CC3)nc2n1CC(=O)Nc1ccc(C(F)(F)F)cc1 (stereo not drawn) [Example 33, 2-(5-ethyl-6-(4-glycylpiperazin-1-yl)-2-(4-methoxycyclohex-1-en-1-yl)-7-oxo-[1,2,4]triazolo[1,5-a]pyrimidin-4(7H)-yl)-N-(4-(trifluoromethyl)phenyl)acetamide] | 1000 nM | > 10000 nM | 8000 nM | – |
| CC(=O)N1CCN(c2c(C)n(CC(=O)Nc3ccc(C(F)(F)F)c(F)c3C)c3nc(C4=CCOCC4)nn3c2=O)CC1 [Example 84, 2-(6-(4-acetylpiperazin-1-yl)-2-(3,6-dihydro-2H-pyran-4-yl)-5-methyl-7-oxo-[1,2,4]triazolo[1,5-a]pyrimidin-4(7H)-yl)-N-(3-fluoro-2-methyl-4-(trifluoromethyl)phenyl)acetamide] | 300 nM | > 10000 nM | 1000 nM | – |
| CC(=O)N1CCN(c2c(C)n(CC(=O)Nc3cc(F)c(C(F)(F)F)cc3C)c3nc(C4=CCOCC4)nn3c2=O)CC1 [Example 83, 2-(6-(4-acetylpiperazin-1-yl)-2-(3,6-dihydro-2H-pyran-4-yl)-5-methyl-7-oxo-[1,2,4]triazolo[1,5-a]pyrimidin-4(7H)-yl)-N-(5-fluoro-2-methyl-4-(trifluoromethyl)phenyl)acetamide] | 300 nM | > 10000 nM | 2000 nM | – |
| Cc1c(N2CCN(C(=O)c3cc(F)ccc3N)CC2)c(=O)n2nc(C3=CCOCC3)nc2n1CC(=O)Nc1ccc(C(F)(F)F)cc1 [Example 157, 2-(6-(4-(2-amino-5-fluorobenzoyl)piperazin-1-yl)-2-(3,6-dihydro-2H-pyran-4-yl)-5-methyl-7-oxo-[1,2,4]triazolo[1,5-a]pyrimidin-4(7H)-yl)-N-(4-(trifluoromethyl)phenyl)acetamide] | 200 nM | > 10000 nM | 3000 nM | – |
